This passage reports Kd results from PMC11976443 (2025).

This experiment deals with 5' FAM-CoA-seq10 aptamer (DNA, aptamer) ATGCAGTCGGCGTCGGACAGGCAAAGGGGAGAGTGATTATAATCACTCGGGACATGGGATCTGTCCGACGATGTAACGCTTCAC
The experiment is described as follows: fluorescence strand displacement. To be noted: apparent; 50 nM aptamer, 1:5 3'-BHQ1 capture strand CTGTCCGACGCCGAC displaced.

For the compound `CC(C)(COP(=O)(O)OP(=O)(O)OC[C@H]1O[C@@H](n2cnc3c(N)ncnc32)[C@H](O)[C@@H]1OP(=O)(O)O)[C@@H](O)C(=O)NCCC(=O)NCCS`, the Kd is listed as 1.133 mM.
